# Results reported in US20250206776A1, “ENZYME-INSTRUCTED SELF-ASSEMBLY OF PEPTIDES CONTAINING N-TERMINAL PHOSPHO-AROMATIC CAPPING MOTIF, AND USES THEREOF” (BRANDEIS UNIVERSITY, priority 2021, published 2025).
# What was measured:
# [1] = Solubility in PBS buffer / water; type: physicochemical; conditions: compared with 6
# [2] = hydrophobicity of the aromatic group; cited from earlier work
# Saos2 cells = assay: MTT assay, Saos2 cells; type: cell-based, human; conditions: Saos2, 2 h, presence or absence of DQB (20 μM)
# Method: (§1) Cell Culture: Saos2, SJSA1 and HepG2 cells were purchased from American Type Culture Collection (ATCC, USA). Saos2 cells were cultured in McCoy's 5A Medium (Gibco, Life Technologies) supplemented with 15% (v/v) fetal bovine serum (FBS) (Gibco, Life Technologies), 100 U/mL penicillin and 100 µg/mL streptomycin (Gibco, Life Technologies); SJSA1 cell were culture in RPMI1640 (ATCC, USA) Medium supplemented with 10% (v/v) FBS, 100 U/mL penicillin and 100 µg/mL streptomycin; HepG2 cells were cultured in Minimal Essential Medium (MEM) (Gibco, Life Technologies) supplemented with 10% (v/v) FBS, 100 U/mL penicillin and 100 µg/mL streptomycin. All the cells were maintained at 37° C. in a humidified atmosphere of 5% CO2.
# (§2) MTT Assay: Cells were seeded in 96-well plates at 1×10^4 cells/well for 24 hours to allow attachment. After removing the culture medium, fresh culture medium containing different concentration of the precursors were added. After 24/48/72 hours, 10 μL MTT (ACROS Organics) solution (5 mg/mL) was added to each well to incubate at 37° C. for 4 h. 100 μL of SDS-HCl solution was then added to stop the reduction reaction and dissolve the formazan. The absorbance of each well at 595 nm was measured by a DTX880 Multimode Detector. The results were calculated as cell viability percentage relative to untreated cells. […]
# SJSA1 cells = assay: MTT assay, SJSA1 cells; type: cell-based, human; conditions: SJSA1, 2 h, presence or absence of DQB (20 μM)
# Method: as §1
# as §2, with “After 24/48/72 hours, 10 μL MTT (ACROS Organics) solution (5 mg/mL) was added to each well to incubate at 37° C. for 4 h.” left out, “cells. The MTT assay was performed in triplet (n=3) and the average value of the three measurements was taken.” for “cells.”
compound,measurement,setting,value
"O=C(N[C@H](Cc1ccccc1)C(=O)N[C@H](Cc1ccccc1)C(=O)O)c1ccc(O)cc1 [compound 2, B-ff]",relative water solubility,[1],more water soluble than 6
c1ccc(-c2ccccc2)cc1 [biphenyl],log P,[2],3.71
"O=C(N[C@H](Cc1ccccc1)C(=O)N[C@H](Cc1ccccc1)C(=O)O)c1ccc2cc(O)ccc2c1 [compound 4, NP-ff]",relative water solubility,[1],more water soluble than 6
COC(=O)CC[C@@H](NC(=O)[C@@H](Cc1ccccc1)NC(=O)[C@@H](Cc1ccccc1)NC(=O)c1ccc(-c2ccc(OP(=O)(O)O)cc2)cc1)C(=O)OC [9P],cytotoxicity compared to 10P (cell viability),Saos2 cells,higher cytotoxicity
same,cytotoxicity compared to 10P (cell viability),SJSA1 cells,higher cytotoxicity
